Experiments:
CDK4:CCND1 = CDK4:CCND1 (Homo sapiens (Human), UniProt P11802); assay: NanoBRET assay in MCF-7 cells, CDK4; assay type: cell-based; details: NanoBRET, transfected MCF-7 cells, 2 hours; n = 1 or average; read-out: CDK4 IC50
Summary of the method: (§1)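 Intracellular target engagement was measured by NanoBRET ratio (460 nm/610 nm) in live MCF-7 cells transiently carrying CDK4:CCND1 (Tracer K-7, 100 μM stock) or CDK1:CCNB1 (Tracer K-9, 400 μM stock).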

OVCAR3 cells [1] = assay: Cell proliferation CyQUANT assay, OVCAR3; assay type: cell-based; details: Homo sapiens, OVCAR-3, 168 h; CyQUANT cell counts, 7 days
Method: An imaging-based assay was used to investigate changes in cell number in OVCAR3 cells (CCNE1-amplified ovarian cancer cell line) and SKOV3 cells (non-amplified ovarian cancer cell line) treated with test compounds.
Cells were plated in 384 well plates (Perkin-Elmer 6057300) in RPMI-1640/10% FBS/1× L-Glu at 500 cells per well in 30 μL and incubated with test compound at 37° C. and 5% CO2 for 7 days. Cells were then stained using the CyQuant Direct Cell Proliferation Assay Kit (Thermo Cat #C7026) in accordance with the kit protocol. The stained cells were imaged using an Operetta high content imager to generate cell counts and IC50 values were calculated relative to DMSO controls.

OVCAR3 cells [2] = assay: Cellular proliferation EdU assay, OVCAR3; assay type: cell-based, human; details: Homo sapiens, OVCAR-3, 48 h, EdU assay, two days; read-out: OVCAR3 IC50
Summary of the method: (§2)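 MCF-7 (800 cells/well) and OVCAR3 (1200 cells/well) in RPMI with 10% FBS exposed to compounds for two days at 37 °C.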

[3] = biological target: 379 non-CDK kinase (or non-CDK kinase-complex) targets; assay: Kinase profiling (SelectScreen, ThermoFisher); assay type: biochemical; details: compared with Compound 6
Description: Test compounds were profiled against a broad panel of kinases at ThermoFisher Scientific using the SelectScreen Kinase Profiling Services. Each kinase assay used one of the following assay technology protocols: • 1) Z-LYTE™ Screening Protocol and Assay Conditions (Revised 23 Jan. 2018 version) available at http://assets.thermofisher.com/TFS-Assets/BID/Methods-&-Protocols/20180123_SSBK_Customer_Protocol_and_Assay_Conditions.pdf; • 2) Adapta™ Screening Protocol and Assay Conditions (Revised 23 Jan. 2018 version) available at http://assets.thermofisher.com/TFS-Assets/BID/Methods-&-Protocols/20180123_SSBK_Adapta_Customer_Protocol_and_Assay_Conditions.pdf; or • 3) LanthaScreen™ Eu Kinase Binding Assay Screening Protocol and Assay Conditions (Revised 23 Jan. 2018 version) available at http://assets.thermofisher.com/TFS-Assets/BID/Methods-&-Protocols/20180123_SSBK_LanthaScreen_Binding_Customer_Protocol_and_Assay_Co nditions.pdf.

CDK1:CCNB1 = CDK1:CCNB1 (Homo sapiens (Human), UniProt P06493); assay: NanoBRET assay in MCF-7 cells, CDK1; assay type: cell-based; details: NanoBRET, transfected MCF-7 cells, 2 hours; n = 1 or average; read-out: CDK1 IC50
CDK1:CCNB1, sequence (P06493 whole entry): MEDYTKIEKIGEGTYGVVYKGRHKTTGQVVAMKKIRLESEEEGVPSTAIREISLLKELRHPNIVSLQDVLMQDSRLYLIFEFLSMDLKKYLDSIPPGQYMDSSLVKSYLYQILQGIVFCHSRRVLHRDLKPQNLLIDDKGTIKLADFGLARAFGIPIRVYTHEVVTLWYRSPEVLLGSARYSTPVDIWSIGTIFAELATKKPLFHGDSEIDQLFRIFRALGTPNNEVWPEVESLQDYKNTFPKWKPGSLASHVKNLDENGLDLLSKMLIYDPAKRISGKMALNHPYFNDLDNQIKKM
CDK1:CCNB1, sequence (P14635 whole entry partner): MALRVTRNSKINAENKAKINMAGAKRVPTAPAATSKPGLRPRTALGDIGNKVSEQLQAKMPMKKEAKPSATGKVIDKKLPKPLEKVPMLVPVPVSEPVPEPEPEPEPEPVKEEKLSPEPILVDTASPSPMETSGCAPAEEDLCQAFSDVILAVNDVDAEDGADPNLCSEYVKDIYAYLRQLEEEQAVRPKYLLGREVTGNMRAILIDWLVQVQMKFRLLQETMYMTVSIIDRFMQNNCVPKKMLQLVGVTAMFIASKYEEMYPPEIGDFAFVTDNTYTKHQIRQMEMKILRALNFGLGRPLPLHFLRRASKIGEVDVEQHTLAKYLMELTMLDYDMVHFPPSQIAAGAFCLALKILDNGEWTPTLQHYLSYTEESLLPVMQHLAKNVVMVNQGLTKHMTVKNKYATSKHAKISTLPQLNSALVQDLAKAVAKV
Summary of the method: as §1

MCF-7 cells = assay: Cellular proliferation EdU assay, MCF-7; assay type: cell-based; details: Homo sapiens, MCF7, 48 h, EdU assay, two days; read-out: MCF-7 IC50
Summary of the method: as §2

[4] = tested on: NPM phosphorylation (Thr199, CDK2-cyclin E complex); assay: NPM phosphorylation imaging assay in MCF-7 cells; assay type: cell-based; details: Homo sapiens, MCF7, 2 h, 4N DNA cells
Summary of the method: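 MCF-7 cells were fixed, permeabilised and immunostained, then imaged for phospho-NPM (Thr199), a CDK2-cyclin E site. Analysis was gated on 4N-DNA cells by Hoechst staining. Signals were normalised to controls and fitted for IC50.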

CDK4:CCND1, sequence (P11802 whole entry): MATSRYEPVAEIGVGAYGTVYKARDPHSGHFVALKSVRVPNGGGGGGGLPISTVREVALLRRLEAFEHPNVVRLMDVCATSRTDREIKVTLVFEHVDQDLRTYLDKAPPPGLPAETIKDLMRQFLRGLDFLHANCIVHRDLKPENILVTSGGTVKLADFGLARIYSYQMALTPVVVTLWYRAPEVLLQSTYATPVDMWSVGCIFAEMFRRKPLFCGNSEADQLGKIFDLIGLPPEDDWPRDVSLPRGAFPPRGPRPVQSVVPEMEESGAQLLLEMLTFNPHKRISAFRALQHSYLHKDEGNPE
CDK4:CCND1, sequence (P24385 whole entry partner): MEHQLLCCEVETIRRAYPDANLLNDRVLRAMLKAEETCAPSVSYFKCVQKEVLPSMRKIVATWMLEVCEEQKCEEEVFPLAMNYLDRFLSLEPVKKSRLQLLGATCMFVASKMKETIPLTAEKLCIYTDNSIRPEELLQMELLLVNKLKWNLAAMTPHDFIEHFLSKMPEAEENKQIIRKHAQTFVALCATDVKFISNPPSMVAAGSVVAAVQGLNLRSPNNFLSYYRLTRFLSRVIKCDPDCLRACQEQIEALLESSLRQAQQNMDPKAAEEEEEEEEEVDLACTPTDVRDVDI

SMILES | IC50 (CDK4:CCND1) [µM] | IC50 (OVCAR3 cells [1]) [µM] | IC50 (OVCAR3 cells [2]) [µM] | kinase inhibition profile [3] | IC50 (CDK1:CCNB1) [µM] | IC50 (MCF-7 cells) [µM] | IC50 [4] [µM]
CCNS(=O)(=O)N1CC[C@H](Nc2nc(N[C@@H](CC)[C@@H](C)O)nc3c2ncn3C)C1 [Example 53, (S)—N-ethyl-3-((2-(((2R,3S)-2-hydroxypentan-3-yl)amino)-9-methyl-9H-purin-6-yl)amino)pyrrolidine-1-sulfonamide] | > 29.7 | 0.373 | 0.616 | broadly similar kinase inhibition profiles to Compound 6 | 1.8 | 1.43 | 0.241
CCNS(=O)(=O)N1CC[C@H](Nc2nc(N[C@@H](CO)C3CC3)nc3c2ncn3C)C1 [Example 19, (S)-3-((2-(((R)-1-cyclopropyl-2-hydroxyethyl)amino)-9-methyl-9H-purin-6-yl)amino)-N-ethylpyrrolidine-1-sulfonamide] | 5.8 | 0.201 | 0.276 | broadly similar kinase inhibition profiles to Compound 6 | 0.342 | 0.538 | 0.133
CCn1cnc2c(N[C@@H]3CN(S(=O)(=O)c4ncc[nH]4)C[C@H]3F)nc(N[C@@H](CO)C3CC3)nc21 (relative stereo) [Example 17, (R)-2-((6-(((3R*,4R*)-1-((1H-imidazol-2-yl)sulfonyl)-4-fluoropyrrolidin-3-yl)amino)-9-ethyl-9H-purin-2-yl)amino)-2-cyclopropylethan-1-ol] | 1.2 | 0.053 | 0.044 | – | 0.114 | – | 0.011
CCn1cnc2c(N[C@H]3CCN(S(=O)(=O)NC)C3)nc(-c3cccc4c3CC[C@]4(C)O)nc21 (relative stereo) [Example 3, (S)-3-((9-ethyl-2-((R*)-1-hydroxy-1-methyl-2,3-dihydro-1H-inden-4-yl)-9H-purin-6-yl)amino)-N-methylpyrrolidine-1-sulfonamide] | 12.8 | – | 0.457 | broadly similar kinase inhibition profiles to Compound 6 | 0.636 | 0.969 | 0.233
